{
  "source": "patent US11582969B2",
  "about": "“Non-nematicidal composition and use thereof” (BioAtlantis Limited, priority 2013, dated 2023)",
  "key": {"[1]": {"tested_on": "potatoes grown in plots infested with Globodera pallida", "test": "Field trial 2013: potato yield with isolated bioactives in plots infested with Globodera pallida", "assay_type": "in vivo, Solanum tuberosum", "details": "2013, average yield per drill (2.59 m^2)", "description": "Differences in efficacy achieved with Composition 1 and Composition 2 in field trials between 2008-2012 pointed to a differential effect of bioactive levels within the two compositions (Example 1). Laboratory trials on grass species grown in the presence of Meloidogyne minor identified fucan (fucoidan) as one of the bioactives responsible for enhancing growth (Example 2). Despite lower levels of fucoidan, Composition 1 also achieved equivalent increases in root growth in the same trial as compared with the purified fucoidan. […] A field trial was undertaken in 2013 to further determine which bioactives or combinations of bioactives are responsible for conferring enhancements in total and marketable yield in nematode infested growth media. As in previous trials, the forms of glucan and fucan used were laminarin and fucoidan respectively.\nBioactives were isolated and stock solutions prepared to contain glucan alone, mannitol alone, glucan+mannitol, fucan+mannitol and glucan+fucan. The efficacy of the bioactive fractions were assessed in plots known to be infested with Globodera pallida. Treatments were fully randomized with plots of approximately 16 m^2 in area and 6 drills wide. Twelve tubers were planted per drill. One metre spacing was placed between blocks with two drills fallow between treatments. The dimensions of the drills were 0.7 meters wide and 3.7 meters in length. The cultivar Navan, (Solanum tuberosum L. ev. Navan) was planted and compositions applied by foliar spray at 50% post-emergence and at approximately seven day intervals thereafter. Foliar spray ceased once senescence was noticed. For each of the 5 treatments, a total of 621 g of bioactives was applied per Ha. A nematicidal treatment, Vydate, was applied at full rate as a separate treatment. Standard compound fertilizers and fungicides were applied at recommended rates and intervals. The crop was harvested in November. Total harvest weight and marketable yield (>35 mm category) was measured, with comparisons between bioactive treatments and nematicide made by means of One-Way ANOVA."}, "[2]": {"tested_on": "Perennial ryegrass", "test": "Pre-soaking seeds: early root growth", "assay_type": "in vivo", "details": "seeds pre-soaked 16 hours, 7 day period", "description": "(§1) The effects of Composition 1 and fucoidan on Creeping bentgrass and Perennial ryegrass root growth were examined in the laboratory setting in the presence or absence of plant parasitic nematodes in 2010. Seeds were pre-soaked in test materials for 16 hours each and left to germinate on wet USGA sand at 16° C. Roots were analysed using WinRHIZO image analysis system, following a 7 day period to assess mean root length following applications (n=10 seedlings per treatment). Experiments were also undertaken to assess the efficacy of Composition 1 and fucoidan in enhancing root length in the presence or absence of plant pathogenic nematodes. Seedlings (×7 replication) were established in sand columns containing USGA specification sand and sprayed on a weekly basis with either Composition 1 or fucoidan. […] Fucoidan was applied at a rate equivalent to 600 g/Ha. Root knot nematodes of the species Meloidogyne minor were inoculated around the roots in week 1, as second stage juveniles. Roots were analysed using WinRHIZO image analysis system following a 25 days period."}, "[3]": {"tested_on": "Creeping bentgrass", "test": "Pre-soaking seeds: early root growth", "assay_type": "in vivo", "details": "seeds pre-soaked 16 hours, 7 day period, n = 10", "description": "as §1"}, "[4]": {"tested_on": "Perennial ryegrass, with or without Meloidogyne minor", "test": "Seedling root length in sand columns with or without Meloidogyne minor", "assay_type": "in vivo", "details": "weekly spray, 25 days, n = 7", "description": "as §1"}, "[5]": {"tested_on": "Creeping bentgrass, with or without Meloidogyne minor", "test": "Seedling root length in sand columns with or without Meloidogyne minor", "assay_type": "in vivo", "details": "weekly spray, 25 days, n = 7", "description": "as §1"}, "[6]": {"details": "inoculation with Meloidogyne minor"}, "[7]": {"details": "no inoculation with Meloidogyne minor"}},
  "note": "Marks after values point to notes of the source that are not given here.",
  "data": [
    {"molecule": "OC[C@@H](O)[C@@H](O)[C@H](O)[C@H](O)CO", "note": "[Mannitol-alone, mannitol]", "values": [
      {"measurement": "Total Weight (g)", "setting": "[1]", "result": "9652** g"},
      {"measurement": "Marketable weight (g)", "setting": "[1]; >35 mm", "result": "9324* g"},
      {"measurement": "Marketable weight", "setting": "[1]; >35 mm, listed as mannitol-alone", "result": 9324, "unit": "g"},
      {"measurement": "Total Weight", "setting": "[1]; listed as mannitol-alone", "result": 9652, "unit": "g"}
    ]},
    {"molecule": "fucoidan", "values": [
      {"measurement": "Mean Root length (mm)", "setting": "[2]; n = 10", "result": "48.9 ^b mm"},
      {"measurement": "Mean Root length (mm)", "setting": "[2]; n = 10, listed as fucoidan", "result": 48.9, "unit": "mm"},
      {"measurement": "Mean Root length (mm)", "setting": "[3]", "result": "39.1 ^a mm"},
      {"measurement": "mean root length (mm), +Mm", "setting": "[4]; [6]", "result": "102.2^b mm"},
      {"measurement": "mean root length (mm), −Mm", "setting": "[4]; [7]", "result": "129.2^c mm"},
      {"measurement": "mean root length (mm), +Mm", "setting": "[5]; [6]", "result": "20.2^b mm"},
      {"measurement": "mean root length (mm), −Mm", "setting": "[5]; [7]", "result": "27.1^b mm"}
    ]},
    {"molecule": "laminarin [Glucan-alone]", "values": [
      {"measurement": "Total Weight", "setting": "[1]", "result": 10524, "unit": "g"},
      {"measurement": "Marketable weight", "setting": "[1]; >35 mm", "result": 10218, "unit": "g"}
    ]}
  ]
}
